Test results: US20160030562A1, “METHODS TO ENHANCE CANCER TREATMENT” (INTERNATIONAL BUSINESS MACHINES CORPORATION, priority 2011, published 2016)

Test system: breast cancer
Assay: Treatment of Patient A (Stage II breast cancer)
Assay type: in vivo, human
Details: tamoxifen alone, 20 mg a day, year 3 of 5-year treatment
Protocol: Patient A has Stage II breast cancer. Patient A is in year 3 of a 5-year treatment with tamoxifen (tamoxifen prescribed at 20 mg a day for 5 years) but no regression in patient's breast cancer is apparent. Additional treatment is desired.
Cholesterol deprivation therapy is prescribed for Patient A. Patient A prefers a vegan diet, so Patient A's diet includes no meat or animal products, no saturated fats, and monounsaturated and polyunsaturated fats in moderation. Vegetable proteins, fruits, vegetables, and grains are primary food sources. A multivitamin with vitamin D and calcium is prescribed. […] CDT is prescribed for 8 months.
Patient A is treated with anti-CD cancer cell antibodies. Initial antibody loading dose of 1.3 g antibody preparation is administered as a two hour IV infusion, followed by weekly doses of about 0.6 g administered as a 30 minute infusion of the antibody preparation. Antibody and CDT treatments continue for 6 months.
As a result of combination treatment with CDT diet, statins, anti-CD cancer cell antibodies, and tamoxifen, Patient A's breast cancer regresses.

CC/C(=C(\c1ccccc1)c1ccc(OCCN(C)C)cc1)c1ccccc1 [tamoxifen]
regression of breast cancer: no regression
